Usually Ki stands for a dissociation constant, usually derived from enzyme kinetics or from competition with a known ligand. For orientation: IC50 means the point on the concentration scale where inhibition reaches its midpoint. The low end stands for greater potency in that assay, the high end for weaker potency in that assay. The term ED50 denotes the dose at which the effect has come halfway, by size or by number of responders. Usually bioavailability stands for the share of a dose that reaches the circulation, judged against a reference dose that is usually intravenous. Read a high bioavailability as good availability. Broadly, the inhibition is the change of the read-out against control, counted positive when it falls.

The source of these data is ChEMBL document CHEMBL5528071, “Discovery of Novel Steroid-Based Histamine H3 Receptor Antagonists/Inverse Agonists” (J Med Chem, 2024).

The structures appear in SMILES notation.

Series [1] has as its target Histamine H3 receptor (Rattus norvegicus, UniProt Q9QYN8).
Description: Displacement of N-alpha-[methyl-3H]-methylhistamine dihydrochloride from Sprague-Dawley rat cerebral cortex membrane Histamine H3 receptor assessed as inhibition constant incubated for 30 mins by scintillation counter
The nature of series [2]: Displacement of [3H]quinuclidinyl benzilate from Wistar rat cerebral cortex membrane muscarinic AChR assessed as inhibition constant by liquid scintillation counter. Background: Displacement assays read how much labelled ligand stays bound in the presence of the test substance.
Series [3] has as its target Voltage-gated inwardly rectifying potassium channel KCNH2 (Homo sapiens, UniProt Q12809). The series can be described thus: Inhibition of human ERG expressed in CHO cells incubated for 7 to 10 mins by automated whole-cell patch clamp recordings. Format: toxicity, cell-based. For orientation: The patch-clamp technique gives a direct electrical read-out from membranes.

The target in series [4] is T1, Histamine H3 receptor (Homo sapiens, UniProt Q9Y5N1).
T1 sequence (Q9Y5N1 whole entry): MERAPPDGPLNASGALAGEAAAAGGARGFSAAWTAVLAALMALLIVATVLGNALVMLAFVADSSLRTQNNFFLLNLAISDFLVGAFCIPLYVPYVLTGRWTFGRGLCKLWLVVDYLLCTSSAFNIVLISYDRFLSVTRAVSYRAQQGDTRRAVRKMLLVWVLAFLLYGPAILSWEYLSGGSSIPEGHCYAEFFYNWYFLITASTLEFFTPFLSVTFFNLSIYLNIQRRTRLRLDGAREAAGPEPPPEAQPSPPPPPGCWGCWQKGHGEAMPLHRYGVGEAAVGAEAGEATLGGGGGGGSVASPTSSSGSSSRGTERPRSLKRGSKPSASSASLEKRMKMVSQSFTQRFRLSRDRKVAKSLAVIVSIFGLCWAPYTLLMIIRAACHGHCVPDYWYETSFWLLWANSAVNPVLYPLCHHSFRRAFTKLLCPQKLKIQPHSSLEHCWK
Description: Displacement of N-alpha-[methyl-3H]methylhistamine dihydrochloride from human Histamine H3 receptor expressed in CHO-K1 cell membrane assessed as inhibition constant incubated for 30 mins by liquid scintillation analyzer
Series [5] is described as follows: In vivo antagonist activity at Histamine H3 receptor in Wistar rat assessed as reduction in imetit-induced water intake pretreated with compound for 30 mins followed by imetit administration and measured after 30 mins by dipsogenia test. It is filed as functional. As to conditions: 1 h, time 60 min.
A further series deals with Mus musculus. The series can be described thus: Cognitive enhancing effect in scopolamine-induced NMRI mouse model assessed as reversal of exploration time by measuring minimum effective dose preadministered orally for 30 mins followed by scopolamine administration by place recognition test. Format: functional. To be noted: 0.5 h, route po, read-out: MED.
The nature of series [6]: Ratio of drug concentration in Hannover Wistar rat brain to plasma administered orally for 2 days and measured 1 hrs post last dose by HPLC-MS/MS analysis. As to conditions: route po, read-out: BPR. Format: ADME.
Series [7] relates to Rattus norvegicus. The experiment in a line: Cognitive enhancing effect in Hannover Wistar rat model of delay-induced natural forgetting assessed as reversal of exploration time by measuring minimal effective dose orally administered for 30 mins by novel object recognition test. It is filed as functional. As to conditions: 0.5 h, route po, read-out: MED.
Series [8] in a line: Bioavailability in Wistar rat at 10 mg/kg, po or 3 mg/kg, iv measured after 24 hrs by HPLC-MS/MS analysis. Format: ADME, organism-based. As to conditions: in vivo.
Series [9] addresses T1, Histamine H3 receptor. The experiment in a line: Antagonist activity at human Histamine H3 receptor.
The species named for series [10] is Rattus norvegicus. The series can be described thus: Displacement of [3H]quinuclidinyl benzilate from Wistar rat cerebral cortex membrane muscarinic AChR at 1 uM by liquid scintillation counter relative to control. It is filed as cell membranes.
Series [11] has as its target T2, hERG (KCNH2) (Homo sapiens, UniProt Q12809). The experiment in a line: Inhibition of human ERG expressed in CHO cells at 3 uM incubated for 7 to 10 mins by automated whole-cell patch clamp recordings relative to control. To be noted: CHO cells expressing human ERG.
The target of series [12] is T2, hERG (KCNH2). The experiment in a line: Inhibition of human ERG expressed in CHO cells at 1 uM incubated for 7 to 10 mins by automated whole-cell patch clamp recordings relative to control. To be noted: CHO cells expressing human ERG.

Voltage-gated inwardly rectifying potassium channel KCNH2, sequence (Q12809 whole entry): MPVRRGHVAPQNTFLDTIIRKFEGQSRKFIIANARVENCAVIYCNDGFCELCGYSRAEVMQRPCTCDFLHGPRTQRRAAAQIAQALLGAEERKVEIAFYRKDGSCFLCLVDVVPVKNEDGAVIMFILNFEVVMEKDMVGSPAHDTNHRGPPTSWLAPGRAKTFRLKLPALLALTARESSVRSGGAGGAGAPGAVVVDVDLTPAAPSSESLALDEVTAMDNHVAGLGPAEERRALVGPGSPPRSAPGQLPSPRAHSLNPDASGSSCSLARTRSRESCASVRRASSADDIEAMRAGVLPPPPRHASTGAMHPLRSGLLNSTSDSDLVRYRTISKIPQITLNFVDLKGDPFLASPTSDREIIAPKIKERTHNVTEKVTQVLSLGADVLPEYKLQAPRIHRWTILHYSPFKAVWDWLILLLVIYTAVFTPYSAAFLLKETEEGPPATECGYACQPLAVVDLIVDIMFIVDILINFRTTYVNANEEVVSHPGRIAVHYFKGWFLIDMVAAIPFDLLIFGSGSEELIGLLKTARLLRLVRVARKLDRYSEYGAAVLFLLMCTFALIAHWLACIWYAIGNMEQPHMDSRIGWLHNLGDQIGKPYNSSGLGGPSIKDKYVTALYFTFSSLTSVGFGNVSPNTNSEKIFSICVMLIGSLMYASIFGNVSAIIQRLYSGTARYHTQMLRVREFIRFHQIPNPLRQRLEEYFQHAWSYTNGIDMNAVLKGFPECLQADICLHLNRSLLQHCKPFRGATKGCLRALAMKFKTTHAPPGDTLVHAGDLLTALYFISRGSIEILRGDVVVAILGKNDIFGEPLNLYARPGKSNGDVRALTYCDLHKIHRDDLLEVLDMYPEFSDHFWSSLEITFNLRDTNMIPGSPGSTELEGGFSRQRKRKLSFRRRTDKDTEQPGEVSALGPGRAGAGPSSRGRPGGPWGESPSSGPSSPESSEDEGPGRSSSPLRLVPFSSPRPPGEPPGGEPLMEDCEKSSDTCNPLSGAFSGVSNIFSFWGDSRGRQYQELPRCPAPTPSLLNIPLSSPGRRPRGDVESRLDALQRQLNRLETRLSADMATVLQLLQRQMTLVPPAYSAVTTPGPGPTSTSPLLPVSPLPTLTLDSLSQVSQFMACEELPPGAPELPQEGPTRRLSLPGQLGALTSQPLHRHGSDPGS
Histamine H3 receptor (Rattus norvegicus, UniProt Q9QYN8), sequence (Q9QYN8 whole entry): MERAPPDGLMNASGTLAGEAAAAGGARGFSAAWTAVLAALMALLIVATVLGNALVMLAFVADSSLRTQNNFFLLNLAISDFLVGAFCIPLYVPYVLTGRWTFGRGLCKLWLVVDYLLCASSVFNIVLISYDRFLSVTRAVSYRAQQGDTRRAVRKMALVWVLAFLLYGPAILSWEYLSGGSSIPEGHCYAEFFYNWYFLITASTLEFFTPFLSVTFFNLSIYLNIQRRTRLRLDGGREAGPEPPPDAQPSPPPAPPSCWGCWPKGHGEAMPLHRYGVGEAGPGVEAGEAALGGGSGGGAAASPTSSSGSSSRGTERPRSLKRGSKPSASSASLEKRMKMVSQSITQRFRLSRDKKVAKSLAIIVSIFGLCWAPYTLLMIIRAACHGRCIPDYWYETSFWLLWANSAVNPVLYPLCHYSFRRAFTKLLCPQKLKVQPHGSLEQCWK
T2 sequence (Q12809 whole entry): as the sequence (Q12809 whole entry) above

In the case of `C[C@@H]1CCCN1CCCOc1ccc2c(c1)CC[C@H]1C3=CCC(=O)N(C)[C@@]3(C)CC[C@H]21`, the values for the Ki (on Histamine H3 receptor [1]; in series [2]; on Histamine H3 receptor [4]) were 5.7 nM, 1500 nM and 1.1 nM, respectively. For the same compound, half-maximal inhibition in [3] (IC50) required 8600 nM. For the same compound, the ED50 in series [5] was found to be 0.22 mg/kg.

Take `C[C@@H]1CCCN1CCCOc1ccc2c(c1)CC[C@@H]1[C@@H]2CC[C@]2(C)NC(=O)CC[C@@H]12`: the half-inhibitory concentration (IC50) in [3] was determined as 3700 nM.

For `C[C@@H]1CCCN1CCCOc1ccc2c(c1)CC[C@H]1[C@@H]3[C@H](C#N)CC(=O)N(C)[C@@]3(C)CC[C@H]21`, the Ki at Histamine H3 receptor [1] is 7.2 nM; on Histamine H3 receptor [4], 2 nM. For the same compound, in [3], the half-inhibitory concentration (IC50) was 10400 nM. In addition, the median effective dose (ED50) in [5] is 0.78 mg/kg.

In the case of `C[C@@H]1CCCN1CCCOc1ccc2c(c1)CC[C@H]1[C@@H]3[C@@H]4C[C@@H]4C(=O)N(C)[C@@]3(C)CC[C@H]21`, the values for the Ki at Histamine H3 receptor [1] and on Histamine H3 receptor [4] were 3.3 nM and 1 nM, respectively. In [3], this compound had an IC50 of 7700 nM. The ED50 in series [5] was 1.4 mg/kg.

In [3], `C[C@@H]1CCCN1CCCOc1ccc2c(c1)CC[C@@H]1[C@@H]2CC[C@]2(C)NC(=O)CC[C@H]12` returned a half-maximal inhibitory concentration (IC50) of 22000 nM.

As for `C[C@@H]1CCCN1CCCOc1ccc2c(c1)CC[C@@H]1[C@@H]2CC[C@@]2(C)[C@H]1CCC(=O)N2C`, the minimal effective dose in the series with Mus musculus was 0.1 mg/kg; with Rattus norvegicus [7] it was 0.3 mg/kg. In series [6], the Kp at 49 h is 1.4. The same compound came in with a 50% inhibitory concentration (IC50) in series [3] of 9900 nM. The compound further came in with a bioavailability in series [8] of 63.7%. Also, the ED50 in series [5] is 0.4 mg/kg.

For the compound `C[C@@H]1CCCN1CCCOc1ccc2c(c1)CC[C@H]1[C@@H]3[C@H](C#N)CC(=O)N[C@@]3(C)CC[C@H]21`, the inhibitory constant (Ki) was found to be 20.5 nM at Histamine H3 receptor [1], 2400 nM in series [2] and 8.6 nM at Histamine H3 receptor [4]. Half-maximal inhibition in series [3] (IC50) was put at 24000 nM. Also, the ED50 in series [5] was 3.6 mg/kg.

In the case of `C[C@@H]1CCCN1CCCOc1ccc2c(c1)CC[C@H]1[C@H]3[C@@H]4C[C@@H]4C(=O)N[C@@]3(C)CC[C@H]21`, the inhibitory constant (Ki) at Histamine H3 receptor [1] turned out to be 9.9 nM; in series [2], 3600 nM; at Histamine H3 receptor [4] it was 2.4 nM. In [3], this compound yielded a half-maximal inhibitory concentration (IC50) of 5000 nM. Further, in [5], the ED50 worked out at 0.33 mg/kg.

Consider `C[C@@H]1CCCN1CCCOc1ccc2c(c1)CC[C@@H]1[C@@H]2CC[C@@]2(C)NC(=O)CC[C@@H]12`, for which the concentration for half-maximal inhibition (IC50) in series [3] is above 30000 nM.

For `C[C@@H]1C[C@H]2[C@@H]3CCc4cc(OCCCN5CCC[C@H]5C)ccc4[C@H]3CC[C@]2(C)NC1=O`, the inhibition constant Ki on Histamine H3 receptor [1] amounted to 9 nM; in series [2] it was 2700 nM; at Histamine H3 receptor [4], 4.1 nM. In [3], this compound showed an IC50 of 14500 nM. Besides, the ED50 in series [5] was 0.86 mg/kg.

`C[C@]12CC[C@@H]3c4ccc(OCCCN5CCCC5)cc4CC[C@H]3[C@@H]1CCCN2CCO`: the inhibitory constant (Ki) on Histamine H3 receptor [1] was determined as 10.5 nM; at Histamine H3 receptor [4] it was 3.4 nM.

`NC(=O)c1ccc([C@@H]2C[C@H]2C(=O)N2CCN(C3CCC3)CC2)cc1`: the Ki at Histamine H3 receptor [9] is 0.501 nM.

As to `CC(=O)N1CCC[C@H]2[C@@H]3CCc4cc(OCCCN5CCC[C@H]5C)ccc4[C@H]3CC[C@@]21C`, the Ki at Histamine H3 receptor [1] worked out at 15.9 nM; at Histamine H3 receptor [4], 6.9 nM. This compound came in with an IC50 in series [3] of 10000 nM.

Turning to `C[C@@H]1CCCN1CCCOc1ccc2c(c1)CC[C@@H]1[C@@H]2CC[C@@]2(C)[C@H]1CCCN2C(=O)C(C)(C)C`, the inhibition constant (Ki) at Histamine H3 receptor [1] was found to be 55.2 nM; in [2] it was 816 nM; at Histamine H3 receptor [4], 7.8 nM.

`C[C@@H]1CCCN1CCCOc1ccc2c(c1)CC[C@@H]1[C@@H]2CC[C@@]2(C)[C@H]1CCCN2C(=O)c1ccccc1` had a Ki at Histamine H3 receptor [4] of 11.6 nM.

Consider `CN1CCC[C@H]2[C@@H]3CCc4cc(OCCCN5CCCC5)ccc4[C@H]3CC[C@@]21C`, for which the values for the inhibitory constant (Ki) at Histamine H3 receptor [1] and at Histamine H3 receptor [4] were 5.1 nM and 0.9 nM, respectively. Besides, the Activity in the series listed under Rattus norvegicus [10] was 69%.

As for `CC(=O)N[C@]12CCC(=O)N[C@@]1(C)CC[C@@H]1c3ccc(OCCCN4CCC[C@H]4C)cc3CC[C@H]12`, the Ki was 14.5 nM on Histamine H3 receptor [1] and 15.1 nM at Histamine H3 receptor [4]. Also, at 3 µM the inhibition against hERG (KCNH2) [11] was 8%. Besides, at hERG (KCNH2) [12], the inhibition at 1 µM came out at 3%.

The compound `C[C@@H]1CCCN1CCCOc1ccc2c(c1)CC[C@@H]1[C@@H]2CC[C@@]2(C)[C@H]1CCCN2C(=O)C1CCOC1` (some centres not stated) yielded an inhibition constant (Ki) at Histamine H3 receptor [1] of 96 nM.

Take `C[C@@H]1CCCN1CCCOc1ccc2c(c1)CC[C@@H]1[C@@H]2CC[C@@]2(C)[C@@H]1CCC(=O)N2C`: half-maximal inhibition in [3] (IC50) required 9600 nM. The 50% effective dose (ED50) in series [5] was determined as 0.23 mg/kg.

With `C[C@@H]1CCCN1CCCOc1ccc2c(c1)CC[C@H]1[C@@H]3[C@@H]4C[C@@H]4C(=O)N[C@@]3(C)CC[C@H]21`, the Ki on Histamine H3 receptor [1] worked out at 9.4 nM; on Histamine H3 receptor [4], 4.9 nM. In [3], this compound came in with an IC50 of 11700 nM. For the same compound, in series [5], the 50% effective dose (ED50) stood at 1.5 mg/kg.

As to `C[C@]12CC[C@@H]3c4ccc(OCCCN5CCCC5)cc4CC[C@H]3[C@@H]1CCCN2C=O`, the Ki at Histamine H3 receptor [1] was determined as 21.8 nM; on Histamine H3 receptor [4] it was 1.8 nM. This compound showed a concentration for half-maximal inhibition (IC50) in [3] of 6000 nM. The same compound registered an Activity in the series listed under Rattus norvegicus [10] of 13%.

As to `C[C@@H]1CC(=O)N(C)[C@@]2(C)CC[C@@H]3c4ccc(OCCCN5CCC[C@H]5C)cc4CC[C@H]3[C@H]12`, the figures for the inhibition constant (Ki) on Histamine H3 receptor [1] and at Histamine H3 receptor [4] were 2.2 nM and 2.4 nM, respectively. In addition, the midpoint of inhibition in series [3], the IC50, lay at 8800 nM. In series [5], the ED50 is 0.48 mg/kg.

As to `C[C@@H]1CC(=O)N[C@@]2(C)CC[C@@H]3c4ccc(OCCCN5CCC[C@H]5C)cc4CC[C@H]3[C@H]12`, the Ki at Histamine H3 receptor [1] came out at 24.8 nM; in [2] it was 2500 nM; at Histamine H3 receptor [4], 2.2 nM. In series [3], this compound registered an IC50 of 11000 nM. For the same compound, the ED50 in series [5] turned out to be 1.3 mg/kg.

In the case of `C[C@@H]1CCCN1CCCOc1ccc2c(c1)CC[C@H]1C3=CCC(=O)N[C@@]3(C)CC[C@H]21`, on Histamine H3 receptor [1], the inhibition constant (Ki) was determined as 6.8 nM. Also, in the series with Mus musculus, the minimal effective dose amounted to 0.3 mg/kg. For the same compound, in series [6], the Kp at 49 h turned out to be 0.6. This compound also displayed an IC50 in series [3] of 18700 nM. In [8], this compound showed a bioavailability of 63.8%. In addition, the ED50 in series [5] is 0.12 mg/kg.

For the compound `C[C@@H]1C[C@@H]2[C@@H]3CCc4cc(OCCCN5CCC[C@H]5C)ccc4[C@H]3CC[C@]2(C)N(C)C1=O`, the results for the Ki at Histamine H3 receptor [1] and on Histamine H3 receptor [4] were 3.8 nM and 1.5 nM, respectively. In [3], this compound returned an IC50 of 2700 nM.

For the compound `CCC(=O)N1CCC[C@H]2[C@@H]3CCc4cc(OCCCN5CCC[C@H]5C)ccc4[C@H]3CC[C@@]21C`, the results for the Ki (on Histamine H3 receptor [1]; in series [2]; at Histamine H3 receptor [4]) were 37.3 nM, 1700 nM and 8 nM, respectively. This compound returned an IC50 in [3] above 10000 nM.

In the series listed under Rattus norvegicus [10], `CN1CCC[C@H]2[C@@H]3CC[C@H]4C[C@@H](OC(=O)CCN5CCCC5)CC[C@]4(C)[C@H]3CC[C@@]21C` returned an Activity of 44%. This compound gave an inhibition constant Ki at Histamine H3 receptor [4] of 10.6 nM.

As to `C[C@]12CC[C@@H]3c4ccc(OCCCN5CCCC5)cc4CC[C@H]3[C@@H]1CCCN2`, the inhibition constant (Ki) turned out to be 30.2 nM at Histamine H3 receptor [1] and 1.5 nM at Histamine H3 receptor [4]. The compound further displayed an Activity in the series filed under Rattus norvegicus [10] of 36%.
